According to patent US20090203634A1, “Compositions and Uses of Amooranin Compounds” (Variety Children's Hospital d/b/a Miami Children's Hospital, priority 2005, published 2009):

Columns and labels:
Test in all cases: TUNEL assay of DNA fragmentation
Type in all cases: cell-based, human
Conditions in all cases: DNase-treated positive control
MCF-7/TH = system: MCF-7/TH
Experimental: (§1) Analysis of DNA fragmentation by agarose gel electrophoresis. To assess the pattern of DNA cleavage caused by AMR, agarose gel electrophoresis was performed as described by Cohen and Duke (Cohen, J. J. and Duke, R. C. J Immunol, 1984, 132:38-42). Briefly, control and drug-treated cells (2×10^6 cells) were lysed with 0.5 ml lysis buffer containing 0.2% Triton X-100 at room temperature for 30 minutes. The supernatant fractions were collected by centrifugation at 12,000×g for 30 minutes. The DNA in these fractions was precipitated overnight with 100 μl 5 M sodium chloride and 0.5 ml 2-isopropanol at −20° C. The DNA was dissolved in 20 μl of 10 mM Tris-HCl (pH 7.4) and 1 mM EDTA buffer. RNase (10 units) was added to the samples before incubating at 60° C. for 1 hour. An equal volume of loading buffer was added afterwards and the samples were subjected to electrophoresis on a 2% agarose gel in Tris borate buffer at 50 V for 3 hours. The agarose gel was stained with ethidium bromide, and DNA fragmentation pattern was visualized in a UV transilluminator. AMR-induced DNA fragmentation was also analyzed by TUNEL assay using in situ cell detection kit according to manufacturer's instructions. Briefly, cells were permeabilized in a solution containing 0.1% Triton X-100 and 0.1% (w/v) sodium citrate for 2 minutes. After washing in PBS, cells were incubated with label solution and terminal transferase. Cells were incubated without terminal deoxynucleotidyl transferase was used as negative control. DNase (1 μg/ml) treated cells incubated with label solution in the presence of terminal deoxynucleotidyl transferase (TUNEL reaction mixture) was used as positive control and the details of TUNEL assay have been described earlier (Ramachandran, C. et al. Anticancer Res, 1997, 17:3369-3376).

MCF-7 = system: MCF-7
Experimental: as §1

MCF-10A = system: MCF-10A
Experimental: as §1

Measured: apoptotic cells (TUNEL)

DNase [reference compound]
more than 95%: all assays above
